Test results as given in PubChem BioAssay (NCI).
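A five-concentration, 48-hour dose response in 96-well plates underlies each endpoint, interpolated linearly between surrounding concentrations. Definition used: TGI = concentration required for complete inhibition of growth.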

Legend:
Test in all cases: DTP human tumour cell line panel, 48 h
SNB-75 CNS = tested on: SNB-75 CNS
CCRF-CEM leukemia = tested on: CCRF-CEM leukemia
HCT-15 colon = tested on: HCT-15 colon
KM12 colon = tested on: KM12 colon
OVCAR-3 ovarian = tested on: OVCAR-3 ovarian
TK-10 renal = tested on: TK-10 renal
A549 NSCLC = tested on: A549 NSCLC
OVCAR-4 ovarian = tested on: OVCAR-4 ovarian
SF-295 CNS = tested on: SF-295 CNS
DU-145 prostate = tested on: DU-145 prostate
SR leukemia = tested on: SR leukemia
MDA-MB-231 breast = tested on: MDA-MB-231 breast
HOP-62 NSCLC = tested on: HOP-62 NSCLC
CAKI-1 renal = tested on: CAKI-1 renal
HS 578T breast = tested on: HS 578T breast
SK-MEL-5 melanoma = tested on: SK-MEL-5 melanoma
SW-620 colon = tested on: SW-620 colon
MALME-3M melanoma = tested on: MALME-3M melanoma
BT-549 breast = tested on: BT-549 breast
EKVX NSCLC = tested on: EKVX NSCLC
SN12C renal = tested on: SN12C renal
A498 renal = tested on: A498 renal
HOP-92 NSCLC = tested on: HOP-92 NSCLC
M14 melanoma = tested on: M14 melanoma
IGROV1 ovarian = tested on: IGROV1 ovarian
UACC-62 melanoma = tested on: UACC-62 melanoma
UO-31 renal = tested on: UO-31 renal
NCI-H522 lung = tested on: NCI-H522 lung
COLO 205 colon = tested on: COLO 205 colon
SK-MEL-28 melanoma = tested on: SK-MEL-28 melanoma
UACC-257 melanoma = tested on: UACC-257 melanoma
U251 CNS = tested on: U251 CNS
SK-OV-3 ovarian = tested on: SK-OV-3 ovarian
HCC-2998 colon = tested on: HCC-2998 colon
PC-3 prostate = tested on: PC-3 prostate
HCT-116 colon = tested on: HCT-116 colon
MDA-N = tested on: MDA-N
RPMI-8226 leukemia = tested on: RPMI-8226 leukemia
SF-268 CNS = tested on: SF-268 CNS
SK-MEL-2 melanoma = tested on: SK-MEL-2 melanoma
OVCAR-5 ovarian = tested on: OVCAR-5 ovarian
MOLT-4 leukemia = tested on: MOLT-4 leukemia
HT29 colon = tested on: HT29 colon
MDA-MB-435 = tested on: MDA-MB-435
SNB-19 CNS = tested on: SNB-19 CNS
NCI-H23 lung = tested on: NCI-H23 lung
NCI-H460 lung = tested on: NCI-H460 lung
OVCAR-8 ovarian = tested on: OVCAR-8 ovarian
HL-60(TB) leukemia = tested on: HL-60(TB) leukemia
NCI/ADR-RES ovarian = tested on: NCI/ADR-RES ovarian
MCF7 breast = tested on: MCF7 breast
786-0 renal = tested on: 786-0 renal
K-562 leukemia = tested on: K-562 leukemia
RXF 393 renal = tested on: RXF 393 renal
LOX IMVI melanoma = tested on: LOX IMVI melanoma
ACHN renal = tested on: ACHN renal
NCI-H226 lung = tested on: NCI-H226 lung

Measured: TGI

COC(C/C=C\C=C\CC/C=C/CC(C)/C=C/C(=C\C(=O)O)CC(=O)O)/C(C)=C\C=C(/C)C(=O)O (centres undefined)
not listed: OVCAR-8 ovarian | HL-60(TB) leukemia | NCI/ADR-RES ovarian | MCF7 breast | 786-0 renal | K-562 leukemia | RXF 393 renal | LOX IMVI melanoma | ACHN renal | NCI-H226 lung
> 100 µM: all other assays above

NC(=O)CC[C@H]1C(=O)N=C(N)N1C(=O)OCc1ccccc1
not listed: CCRF-CEM leukemia | A549 NSCLC | HOP-92 NSCLC | M14 melanoma | SK-OV-3 ovarian
> 100 µM: all other assays above
